One series can be described thus: Solubility in water. It is filed as physicochemical. As to the method: 30 g (0.1 mol) of sodium 9-cis-retinoate was dissolved in 100 ml of acetonitrile. 26.1 g (0.1 mol) of 2-Bromo-N,N-diethylethylamine.HBr was added into the reaction mixture. The mixture was stirred for overnight at RT. The solvents were evaporated off. 200 ml of ethanol was added into the residue. The solid was removed by filtration. The solution was evaporated to dryness. 100 ml of ethyl acetate was added into the reaction mixture. Hexane (100 ml) was added. The solid product was collected by filtration. After drying, it yielded 36 g of the desired product (75%).

The nature of series [1]: Fluorescence microscopy of HPC crossing rat skin, brain and other organs. It is filed as in vivo. The note with it: 15 minutes after 30 mg in 0.5 ml ethanol on back of rats. As for the experimental part: For fluorescence microscopy studies, 30 mg of 5-(dimethylamino)naphthalene-1-sulfonic acid or its HPC, N-2-diethylaminoethyl 5-dimethylamino-1-naphthalenesulfonamide.HCl salt was dissolved in 0.5 ml of 75% ethanol and applied to the shaved back of rats (3×3 cm). 15 minutes or 3 hours later, the rat was killed and organs were taken out and frozen. The frozen tissues (brain, liver, and muscle) were sliced and stained with Haematoxylin and eosin (H&E) staining. Results were shown picture 1-9 in FIG. 9.

A short description of series [2]: Distribution in organs of rabbits after transdermal HPC of ibuprofen. It is filed as in vivo. The note with it: for distribution in brain / distribution in cartilage pads / distribution in heart / distribution in prostate gland / distribution in testis: 2 hr after 0.3 mol/kg HPC of ibuprofen (10% aqueous) on shaved back; for distribution in Myelin: 2 hr after HPC of ibuprofen (10% aqueous) on shaved back.
From the text: (§1) A HPC changed quickly to its parent drug in vivo, so the concentration was the concentration of its parent drug or related compound.

A short description of series [3]: Amount of ibuprofen in rat plasma and brain, 0.3 mmol/kg. As to the method:
The plasma or brain tissue (the whole brain was washed with pH 7.4 buffer for 3 times) was homogenized immediately in 3-5 ml of methanol, using a tissue tearor at 30,000 rpm (about 2 min.).

Series [4] in a line: Amounts of ibuprofen in Beagle dogs cartilage tissue. It is filed as in vivo. The note with it: 18 hours after administration.
The nature of series [5]: Amount of ibuprofen in Beagle dogs synovial fluid, 0.3 mmol/kg. It is filed as in vivo.
Series [6] relates to rats given sterilized E. coli suspension as a pyrogen. The experiment in a line: Antipyretic activity of ibuprofen and its HPC (Study A). It is filed as in vivo.
Series [7] in a line: Distribution in organs of rats after transdermal HPC of ibuprofen. To be noted: 2 hr after 0.3 mmol/kg HPC of ibuprofen (10% aqueous) on shaved back.
From the text: as §1
The subject of the next series is mice (aging). The experiment in a line: Lifespan of mice. It is filed as in vivo. As for the experimental part: 60 mice (10 weeks old, 30.3±3.5 g) were divided into groups A and B. In group A (n=30), 0.05 ml of distilled water (˜2 cm^2) was applied to the back of mice once per day. In group B (n=30), […] of diethylaminoethyl acetylsalicylate citric acid (the HPC of aspirin) in 0.05 ml of water (10%) was applied to the back of mice (˜2 cm^2) once per day.

For series [8], the system named is spontaneously hypertensive rats (SLAC/SHR). Kind of series: Anti-hypertensive activity in spontaneously hypertensive rats. It is filed as in vivo. The note with it: 50 mg/kg (10% in water) on back skin once per day. As to the method: 20 spontaneously hypertensive rats (SLAC/SHR, 19 weeks old, 300-350 g) were divided into 2 groups randomly. In group A, pure water (0.5 ml) was applied to the rats' back skin (˜5 cm^2, fur was cut off) once per day for 6 weeks. In groups B, 50 mg/kg of diethylaminoethyl acetylsalicylate citric acid salt (10% in water) was applied to the rats' back skin (˜5 cm^2, fur was cut off) once per day.

In series [9] the test system is Smyth chickens (animal models of vitiligo). The experiment in a line: Anti-vitiligo activity in Smyth chickens. It is filed as in vivo. To be noted: 50 mg/kg (5% in pure water) on discoloured lesions once per day for 10 weeks. As for the experimental part: 20 Smyth chickens (animal models of vitiligo) were allocated to 2 groups. Group A (n=10) chickens received 1 ml of pure water on discoloured lesions once per day for 10 weeks. Group B (n=10) Smyth chicken received 50 mg/kg of diethylaminoethyl acetylsalicylate citric acid (5% in pure water) on discoloured lesions once per day for 10 weeks. In the untreated control group A, the lesions were worse and feather loss continued. In the diethylaminoethyl acetylsalicylate citric acid treated group B, the discoloured lesions disappeared and feathers regrew with 3-6 weeks.

Series [10] is described as follows: Distribution in milk of sheep after transdermal HPC of ibuprofen. The note with it: female, topical, 2 hr after 0.3 mmol/kg diethylaminoethyl 2-(ρ-isobutylphenyl)propionate.citric acid salt on back, read-out: amount found in the milk. It is filed as in vivo.
From the text: as §1
Setting [11] is: 20 mg/kg, transdermally, t = 0 min.
[12] abbreviates: 20 mg/kg, transdermally, t = 90 min.
[13] abbreviates: 20 mg/kg, transdermally, t = 180 min.
Setting [14] is: 20 mg/kg, transdermally, t = 270 min.
The mark [15] stands for this setting: 50 mg/kg, transdermally, t = 0 min.
[16] abbreviates: 50 mg/kg, transdermally, t = 90 min.
The mark [17] stands for this setting: 50 mg/kg, transdermally, t = 180 min.
Setting [18] is: 50 mg/kg, transdermally, t = 270 min.
[19] abbreviates: 100 mg/kg, orally, t = 270 min.
Setting [20] is: 100 mg/kg, transdermally, t = 0 min.
Where [21] appears, read: 100 mg/kg, transdermally, t = 90 min.
Setting [22] is: 100 mg/kg, transdermally, t = 180 min.
Where [23] appears, read: 100 mg/kg, transdermally, t = 270 min.

SMILES strings stand for the structures.

In the case of `Br.CCN(CC)CCOC(=O)/C=C(C)/C=C/C=C(C)\C=C\C1=C(C)CCCC1(C)C` [N,N-diethylaminoethyl 9-cis-retinoate.HBr], the solubility in water in “Solubility in water” was determined as 30 mg/mL.

Turning to `CCN(CC)CCNS(=O)(=O)c1cccc2c(N(C)C)cccc12.Cl` [N-2-diethylaminoethyl 5-dimethylamino-1-naphthalenesulfonamide.HCl salt], the “fluorescence chemical entering brain, muscle, and liver” value in [1] is “large amount of the fluorescence chemical had entered the brain, muscle, and liver”.

As for `CCN(CC)CCOC(=O)C(C)c1ccc(CC(C)C)cc1.Cl` (stereo not drawn) [diethylaminoethyl 2-(ρ-isobutylphenyl)propionate.HCl], the distribution in brain worked out at 0.4 ± 0.2 nmol/g in series [2] and 0.1 ± 0.05 nmol/g in [7]. In series [2], the “distribution in cartilage pads” value worked out at 0.4 ± 0.2 nmol/g. Also, the distribution in heart in series [2] is given as 0.3 ± 0.1 nmol/g; in [7] it was 0.5 ± 0.2 nmol/g. In addition, the “distribution in prostate gland” value in [2] was 0.5 ± 0.3 nmol/g. Also, the distribution in testis in series [2] is 0.5 ± 0.3 nmol/g. For the same compound, in series [2], the “distribution in Myelin” value was 0.60 ± 0.2 nmol/g. Also, the “ibuprofen in Plasma (18 hr)” value in series [3] (intramuscularly) was determined as 0.5 ± 0.2 nmol/mL; in series [3] (transdermally), 2.9 ± 2 nmol/mL. Besides, the “Amount of ibuprofen in cartilage tissue” value worked out at 17.2 ± 6.1 nmol/g in [4] (intramuscularly) and 22.5 ± 4.5 nmol/g in series [4] (transdermally). The “ibuprofen in synovial fluid” value in series [5] (intramuscularly, 1 hour) is recorded as 28.1 ± 8.1 nmol/g; in series [5] (intramuscularly, 8 hours), 22.1 ± 4.2 nmol/g; in [5] (intramuscularly, 18 hours), 4.2 ± 1.1 nmol/g; in [5] (transdermally, 1 hour), 11.6 ± 4.2 nmol/g; in [5] (transdermally, 8 hours), 28.2 ± 4.7 nmol/g; in [5] (transdermally, 18 hours), 11.2 ± 3.2 nmol/g. Also, the body temperature in [6] (20 mg/kg, orally, t = 0 min.) is given as 37.6 ± 0.3; in [6] (20 mg/kg, orally, t = 90 min.), 37.1 ± 0.3; in series [6] (20 mg/kg, orally, t = 180 min.), 36.9 ± 0.3; in series [6] (20 mg/kg, orally, t = 270 min.) it was 36.8 ± 0.2; in series [6] (setting [11]), 37.6 ± 0.2; in [6] (setting [12]), 36.7 ± 0.4. For the same compound, the body temperature in series [6] (setting [13]) amounted to 36.6 ± 0.5; in [6] (setting [14]), 36.5 ± 0.3; in series [6] (50 mg/kg, orally, t = 0 min.) it was 37.6 ± 0.3; in series [6] (50 mg/kg, orally, t = 90 min.), 36.6 ± 0.3; in series [6] (50 mg/kg, orally, t = 180 min.), 36.5 ± 0.3; in series [6] (50 mg/kg, orally, t = 270 min.) it was 36.4 ± 0.2. Besides, the body temperature in series [6] (setting [15]) was found to be 37.5 ± 0.4; in series [6] (setting [16]) it was 36.5 ± 0.3; in series [6] (setting [17]), 36.4 ± 0.3; in [6] (setting [18]), 36.5 ± 0.2; in series [6] (100 mg/kg, orally, t = 0 min.) it was 37.5 ± 0.4; in series [6] (100 mg/kg, orally, t = 90 min.), 36.5 ± 0.3. For the same compound, the body temperature in series [6] (100 mg/kg, orally, t = 180 min.) came out at 36.4 ± 0.3; in series [6] (setting [19]) it was 36.4 ± 0.2; in series [6] (setting [20]), 37.5 ± 0.3; in series [6] (setting [21]), 36.5 ± 0.2; in series [6] (setting [22]), 36.4 ± 0.3; in [6] (setting [23]), 36.5 ± 0.2. In addition, the distribution in kidney in series [7] is 0.4 ± 0.2 nmol/g. Also, the distribution in liver in series [7] is given as 0.2 ± 0.2 nmol/g. The compound also had a distribution in pancreas in [7] of 0.5 ± 0.3 nmol/g. The compound also displayed a distribution in stomach in series [7] of 0.3 ± 0.1 nmol/g.

The compound `CCN(CC)CCOC(=O)c1ccccc1OC(C)=O.O=C(O)CC(O)(CC(=O)O)C(=O)O` [diethylaminoethyl acetylsalicylate citric acid salt] displayed a Lifespan in the series on mice (aging) (0.5 mg in 0.05 ml of water on back once per day, n=30) of 38.2 ± 4.6 month. Also, in the series with mice (aging) (mouse, in vivo), the “increase of the lifespan of mice” value came out at 27%. Further, in [8], the “Blood pressure (week 0), Systolic” value is 184.6 ± 15.1 mmHg; the “Blood pressure (week 0), diastolic” value worked out at 118.2 ± 13.1 mmHg; the “Blood pressure (week 2 to week 6), Systolic” value is reported as 115.4 ± 14.6 mmHg; the “Blood pressure (week 2 to week 6), diastolic” value was 83.5 ± 12.1 mmHg. In series [9], the “time until discoloured lesions disappeared and feathers regrew” value is reported as 3-6 weeks.

`CC(C)Cc1ccc(C(C)C(=O)O)cc1` (stereo not drawn) [ibuprofen, 2-(ρ-isobutylphenyl)propionic acid, reference compound] registered a distribution in brain in series [2] of 5 ± 1 nmol/g. In addition, the “distribution in cartilage pads” value in series [2] amounted to 8 ± 2 nmol/g. Besides, the distribution in heart in series [2] is 10 ± 5 nmol/g. In addition, the “distribution in prostate gland” value in series [2] is on record as 18 ± 7 nmol/g. Further, in series [2], the distribution in testis is 11 ± 4 nmol/g. For the same compound, the “distribution in Myelin” value in series [2] was determined as 25 ± 8 nmol/g. In series [3] (male, rat, in vivo), this compound came in with a concentration at 1 h of 1430 ± 68 µM. In series [3] (male, rat, in vivo), this compound registered a concentration at 8 h of 313 ± 39 µM. Besides, the “ibuprofen in synovial fluid” value in series [5] (intramuscularly, 1 hour) amounted to 3.2 ± 0.3 nmol/g; in [5] (intramuscularly, 8 hours), 0.3 ± 0.1 nmol/g. Also, the body temperature was determined as 37.5 ± 0.2 in series [6] (20 mg/kg, orally, t = 0 min.); 37.6 ± 0.3 in series [6] (20 mg/kg, orally, t = 90 min.); 37.5 ± 0.3 in series [6] (20 mg/kg, orally, t = 180 min.); 37.4 ± 0.3 in series [6] (20 mg/kg, orally, t = 270 min.); 37.5 ± 0.3 in series [6] (setting [11]); 37.5 ± 0.5 in [6] (setting [12]). Also, the body temperature in series [6] (setting [13]) turned out to be 37.8 ± 0.4; in [6] (setting [14]), 37.9 ± 0.3; in series [6] (50 mg/kg, orally, t = 0 min.), 37.5 ± 0.3; in [6] (50 mg/kg, orally, t = 90 min.), 37.6 ± 0.3; in [6] (50 mg/kg, orally, t = 180 min.), 37.2 ± 0.3; in [6] (50 mg/kg, orally, t = 270 min.), 37.1 ± 0.3. Moreover, the body temperature in [6] (setting [15]) came out at 37.6 ± 0.3; in series [6] (setting [16]), 37.8 ± 0.3; in series [6] (setting [17]) it was 37.9 ± 0.3; in series [6] (setting [18]) it was 38.1 ± 0.3; in series [6] (100 mg/kg, orally, t = 0 min.), 37.5 ± 0.3; in series [6] (100 mg/kg, orally, t = 90 min.), 37.4 ± 0.4. For the same compound, the body temperature in [6] (setting [19]) amounted to 36.7 ± 0.3; in [6] (setting [20]) it was 37.6 ± 0.4; in series [6] (setting [21]) it was 37.9 ± 0.4; in series [6] (setting [22]), 37.8 ± 0.3; in [6] (setting [23]), 37.8 ± 0.2. Besides, the antipyretic activity result in series [6] (transdermal administration) is “did not show any antipyretic activity”. Further, the concentration at 2 h in series [10] worked out at 30 ± 8 µM.

These data come from patent publication US11541029B2, “High penetration compositions and their applications” (Techfields Pharma Co., Ltd., priority 2008, dated 2023).
